Experiments:
RPMI-8226 = assay: NCI DTP cell line screen (SRB), Leukemia; type: cell-based, human
Procedure: (§1) Screening of compounds 70 and 71 against several cancer cell lines The human tumor cell lines of the cancer screening panel are grown in RPMI 1640 medium containing 5% fetal bovine serum and 2 mM L-glutamine. For a typical screening experiment, cells are inoculated into 96 well microtiter plates in 100 μL at plating densities ranging from 5,000 to 40,000 cells/well depending on the doubling time of individual cell lines. After cell inoculation, the microtiter plates are incubated at 37° C., 5% CO2, 95% air and 100% relative humidity for 24 h prior to addition of experimental drugs.
(§2) After 24 h, two plates of each cell line are fixed in situ with TCA, to represent a measurement of the cell population for each cell line at the time of drug addition (Tz). Experimental drugs are solubilized in dimethyl sulfoxide at 400-fold the desired final maximum test concentration and stored frozen prior to use. At the time of drug addition, an aliquot of frozen concentrate is thawed and diluted to twice the desired final maximum test concentration with complete medium containing 50 μg/ml gentamicin. Additional four, 10-fold or ½ log serial dilutions are made to provide a total of five drug concentrations plus control. Aliquots of 100 μl of these different drug dilutions are added to the appropriate microtiter wells already containing 100 μl of medium, resulting in the required final drug concentrations.
(§3) Following drug addition, the plates are incubated for an additional 48 h at 37° C., 5% CO2, 95% air, and 100% relative humidity. For adherent cells, the assay is terminated by the addition of cold TCA. Cells are fixed in situ by the gentle addition of 50 μl of cold 50% (w/v) TCA (final concentration, 10% TCA) and incubated for 60 minutes at 4° C. The supernatant is discarded, and the plates are washed five times with tap water and air dried. Sulforhodamine B (SRB) solution (100 μl) at 0.4% (w/v) in 1% acetic acid is added to each well, and plates are incubated for 10 minutes at room temperature. After staining, unbound dye is removed by washing five times with 1% acetic acid and the plates are air dried. Bound stain is subsequently solubilized with 10 mM trizma base, and the absorbance is read on an automated plate reader at a wavelength of 515 nm. For suspension cells, the methodology is the same except that the assay is terminated by fixing settled cells at the bottom of the wells by gently adding 50 μl of 80% TCA (final concentration, 16% TCA). Using the seven absorbance measurements [time zero, (Tz), control growth, (C), and test growth in the presence of drug at the five concentration levels (Ti)], the percentage growth is calculated at each of the drug concentrations levels. Percentage growth inhibition is calculated as: [(Ti−Tz)/(C−Tz)]×100 for concentrations for which Ti>/=Tz [(Ti−Tz)/Tz]×100 for concentrations for which Ti<Tz
(§4) Three dose response parameters are calculated for each experimental agent. […] The drug concentration resulting in total growth inhibition (TGI) is calculated from Ti=Tz. […] Values are calculated for each of these three parameters if the level of activity is reached; however, if the effect is not reached or is exceeded, the value for that parameter is expressed as greater or less than the maximum or minimum concentration tested.
(§5) The methods described were used to test compounds 70 and 71 on a panel of sixty cell lines under a screening service provided by the Developmental Therapeutics Program at the National Institutes of Health. Shown in FIG. 1C are 1, RPMI-8226 leukemia cells; 2; NCI-H322M non-small cell lung cancer cells; 3, HT29 colon cancer cells; 4, U251 CNS cancer cells; 5, SK-MEL-28 melanoma cancer cells; 6, SK-OV-3 ovarian cancer cells; 7, RXF 393 renal cancer cells; 8, PC-3 prostate cancer cells; 9, MDA-MB-231 breast cancer cells.

A549/ATCC = assay: NCI DTP cell line screen (SRB), Non-Small Cell Lung Cancer; type: cell-based
Procedure: as §1, §2, §3, §4, §5

EKVX = assay: as above; type: cell-based
Procedure: as §1, §2, §3, §4, §5

HOP-62 = assay: as above; type: cell-based
Procedure: as §1, §2, §3, §4, §5

[1] = read-out: LC50 (the source's name)

N=C(N)Nc1ccc(-n2nc(C(F)(F)F)cc2-c2ccc3c(ccc4ccccc43)c2)cc1 [Compound 71, 4-[5-(2-Phenanthrenyl)-3-(trifluoromethyl)-1H-pyrazol-1-yl]-phenyl-guanidine]
GI50 (RPMI-8226): 1030 nM | Mean Optical Densities (RPMI-8226; Log10 Concentration −4.0): 0.176 | Percent Growth (RPMI-8226; Log10 Concentration −4.0): −47% | Mean Optical Densities (RPMI-8226; Log10 Concentration −5.0): 0.016 | Percent Growth (RPMI-8226; Log10 Concentration −5.0): −95% | Mean Optical Densities (RPMI-8226; Log10 Concentration −6.0): 0.513 | Percent Growth (RPMI-8226; Log10 Concentration −6.0): 52% | Mean Optical Densities (RPMI-8226; Log10 Concentration −7.0): 0.559 | Percent Growth (RPMI-8226; Log10 Concentration −7.0): 65% | Mean Optical Densities (RPMI-8226; Log10 Concentration −8.0): 0.536 | Percent Growth (RPMI-8226; Log10 Concentration −8.0): 58% | TGI (RPMI-8226; in M (unit assumed)): 2.25E−06 | GI50 (A549/ATCC): 1680 nM | TGI (A549/ATCC): 3.04E−06 | Mean Optical Densities (A549/ATCC; Log10 Concentration −4.0): 0.135 | Percent Growth (A549/ATCC; Log10 Concentration −4.0): −63% | Mean Optical Densities (A549/ATCC; Log10 Concentration −5.0): −0.032 | Percent Growth (A549/ATCC; Log10 Concentration −5.0): −100% | Mean Optical Densities (A549/ATCC; Log10 Concentration −6.0): 1.121 | Percent Growth (A549/ATCC; Log10 Concentration −6.0): 93% | Mean Optical Densities (A549/ATCC; Log10 Concentration −7.0): 1.145 | Percent Growth (A549/ATCC; Log10 Concentration −7.0): 96% | Mean Optical Densities (A549/ATCC; Log10 Concentration −8.0): 1.140 | Percent Growth (A549/ATCC; Log10 Concentration −8.0): 96% | CC50 (A549/ATCC; [1]): 5510 nM | GI50 (EKVX): 1060 nM | TGI (EKVX): 2.24E−06 | Mean Optical Densities (EKVX; Log10 Concentration −4.0): 0.145 | Percent Growth (EKVX; Log10 Concentration −4.0): −74% | Mean Optical Densities (EKVX; Log10 Concentration −5.0): −0.008 | Percent Growth (EKVX; Log10 Concentration −5.0): −100% | Mean Optical Densities (EKVX; Log10 Concentration −6.0): 0.711 | Percent Growth (EKVX; Log10 Concentration −6.0): 54% | Mean Optical Densities (EKVX; Log10 Concentration −7.0): 0.737 | Percent Growth (EKVX; Log10 Concentration −7.0): 63% | Mean Optical Densities (EKVX; Log10 Concentration −8.0): 0.713 | Percent Growth (EKVX; Log10 Concentration −8.0): 55% | CC50 (EKVX; [1]): 4740 nM | GI50 (HOP-62): 1720 nM | TGI (HOP-62): 3.12E−06 | Mean Optical Densities (HOP-62; Log10 Concentration −4.0): 0.329 | Percent Growth (HOP-62; Log10 Concentration −4.0): −36% | Mean Optical Densities (HOP-62; Log10 Concentration −5.0): 0.011 | Percent Growth (HOP-62; Log10 Concentration −5.0): −98% | Mean Optical Densities (HOP-62; Log10 Concentration −6.0): 1.255 | Percent Growth (HOP-62; Log10 Concentration −6.0): 96% | Mean Optical Densities (HOP-62; Log10 Concentration −7.0): 1.267 | Percent Growth (HOP-62; Log10 Concentration −7.0): 97% | Mean Optical Densities (HOP-62; Log10 Concentration −8.0): 1.285 | Percent Growth (HOP-62; Log10 Concentration −8.0): 100%
